# Assay results as given in ChEMBL document CHEMBL4507286 (2021).
# Columns and labels:
# [1] = target: Interferon-induced, double-stranded RNA-activated protein kinase (Homo sapiens) (UniProt P19525)
# [2] = target: MAP kinase-interacting serine/threonine-protein kinase 1 (Homo sapiens) (UniProt Q9BUB5)
# [3] = target: Serine/threonine-protein kinase 16 (Homo sapiens) (UniProt O75716)
# [4] = target: Receptor-type tyrosine-protein kinase FLT3 (Homo sapiens) (UniProt P36888)
# [5] = target: Serine/threonine-protein kinase D2 (Homo sapiens) (UniProt Q9BZL6)
# [6] = system: Phosphatidylinositol 4,5-bisphosphate 3-kinase catalytic subunit alpha isoform (Homo sapiens), P42336 [C420R]
# Phosphatidylinositol 4,5-bisphosphate 3-kinase catalytic subunit alpha isoform (Homo sapiens), P42336 [C420R], sequence (P42336 whole entry C420R, canonical isoform): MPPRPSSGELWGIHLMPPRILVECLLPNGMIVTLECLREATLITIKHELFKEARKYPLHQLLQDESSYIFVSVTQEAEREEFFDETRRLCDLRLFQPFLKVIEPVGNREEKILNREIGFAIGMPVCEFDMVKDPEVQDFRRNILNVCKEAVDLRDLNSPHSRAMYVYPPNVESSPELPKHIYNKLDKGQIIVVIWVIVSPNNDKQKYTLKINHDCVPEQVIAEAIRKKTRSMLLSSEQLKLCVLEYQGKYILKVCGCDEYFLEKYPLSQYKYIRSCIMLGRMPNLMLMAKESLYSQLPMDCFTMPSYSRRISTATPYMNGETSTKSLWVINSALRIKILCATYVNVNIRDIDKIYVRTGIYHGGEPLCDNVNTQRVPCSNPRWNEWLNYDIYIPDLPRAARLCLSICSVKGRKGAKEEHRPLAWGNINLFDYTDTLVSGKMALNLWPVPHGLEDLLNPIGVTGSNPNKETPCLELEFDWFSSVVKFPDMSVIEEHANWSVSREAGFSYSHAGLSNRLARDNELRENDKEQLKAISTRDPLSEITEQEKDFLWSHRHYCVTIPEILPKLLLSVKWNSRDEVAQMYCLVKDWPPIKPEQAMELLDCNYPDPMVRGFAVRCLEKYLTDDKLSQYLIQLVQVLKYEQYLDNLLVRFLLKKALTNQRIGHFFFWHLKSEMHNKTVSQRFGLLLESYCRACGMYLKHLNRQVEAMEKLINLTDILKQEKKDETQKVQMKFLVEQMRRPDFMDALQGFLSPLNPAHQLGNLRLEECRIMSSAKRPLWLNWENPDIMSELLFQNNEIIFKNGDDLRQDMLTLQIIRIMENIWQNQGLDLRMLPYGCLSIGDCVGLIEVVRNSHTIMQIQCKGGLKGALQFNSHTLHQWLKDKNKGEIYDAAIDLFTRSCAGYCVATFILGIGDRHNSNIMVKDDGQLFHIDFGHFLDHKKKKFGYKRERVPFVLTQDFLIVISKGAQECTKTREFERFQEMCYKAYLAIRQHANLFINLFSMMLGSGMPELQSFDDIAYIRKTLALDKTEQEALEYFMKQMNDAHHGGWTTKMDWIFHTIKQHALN
# [7] = system: Tyrosine-protein kinase ABL1 (Homo sapiens), P00519 [Q252H]
# [8] = target: NUAK family SNF1-like kinase 1 (Homo sapiens) (UniProt O60285)
# [9] = target: Ribosomal protein S6 kinase alpha-3 (Homo sapiens) (UniProt P51812)
# Ribosomal protein S6 kinase alpha-3 (Homo sapiens), sequence (P51812 whole entry): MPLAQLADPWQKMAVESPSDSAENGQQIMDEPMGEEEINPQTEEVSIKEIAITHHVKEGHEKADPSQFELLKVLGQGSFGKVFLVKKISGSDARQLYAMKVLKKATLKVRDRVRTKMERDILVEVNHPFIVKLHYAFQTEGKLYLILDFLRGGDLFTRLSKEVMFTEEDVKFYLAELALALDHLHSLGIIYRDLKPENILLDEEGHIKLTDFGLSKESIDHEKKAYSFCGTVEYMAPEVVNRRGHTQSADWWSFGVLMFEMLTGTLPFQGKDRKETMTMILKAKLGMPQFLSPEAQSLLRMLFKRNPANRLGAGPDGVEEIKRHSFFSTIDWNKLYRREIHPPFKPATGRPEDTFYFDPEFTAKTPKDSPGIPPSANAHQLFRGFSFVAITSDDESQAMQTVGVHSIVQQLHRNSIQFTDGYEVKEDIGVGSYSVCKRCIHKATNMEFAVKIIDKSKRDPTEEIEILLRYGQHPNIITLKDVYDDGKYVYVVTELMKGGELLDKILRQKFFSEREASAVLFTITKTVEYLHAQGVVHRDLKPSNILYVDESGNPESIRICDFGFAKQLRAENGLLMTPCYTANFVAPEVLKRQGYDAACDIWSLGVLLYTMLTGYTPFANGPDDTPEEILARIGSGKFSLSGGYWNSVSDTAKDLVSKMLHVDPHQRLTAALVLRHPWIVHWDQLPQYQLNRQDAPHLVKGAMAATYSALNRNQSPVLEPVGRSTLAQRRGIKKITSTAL
# [10] = system: Mast/stem cell growth factor receptor Kit (Homo sapiens), P10721 [L576P]
# [11] = target: cAMP-dependent protein kinase catalytic subunit PRKX (Homo sapiens) (UniProt P51817)
# [12] = target: Serine/threonine-protein kinase 10 (Homo sapiens) (UniProt O94804)
# [13] = target: Cyclin-dependent kinase 4 (Homo sapiens) (UniProt P11802)
# [14] = target: Dual specificity tyrosine-phosphorylation-regulated kinase 1A (Homo sapiens) (UniProt Q13627)
# [15] = target: Tyrosine-protein kinase HCK (Homo sapiens) (UniProt P08631)
# [16] = target: Homeodomain-interacting protein kinase 3 (Homo sapiens) (UniProt Q9H422)
# Homeodomain-interacting protein kinase 3 (Homo sapiens), sequence (Q9H422 whole entry, looked up): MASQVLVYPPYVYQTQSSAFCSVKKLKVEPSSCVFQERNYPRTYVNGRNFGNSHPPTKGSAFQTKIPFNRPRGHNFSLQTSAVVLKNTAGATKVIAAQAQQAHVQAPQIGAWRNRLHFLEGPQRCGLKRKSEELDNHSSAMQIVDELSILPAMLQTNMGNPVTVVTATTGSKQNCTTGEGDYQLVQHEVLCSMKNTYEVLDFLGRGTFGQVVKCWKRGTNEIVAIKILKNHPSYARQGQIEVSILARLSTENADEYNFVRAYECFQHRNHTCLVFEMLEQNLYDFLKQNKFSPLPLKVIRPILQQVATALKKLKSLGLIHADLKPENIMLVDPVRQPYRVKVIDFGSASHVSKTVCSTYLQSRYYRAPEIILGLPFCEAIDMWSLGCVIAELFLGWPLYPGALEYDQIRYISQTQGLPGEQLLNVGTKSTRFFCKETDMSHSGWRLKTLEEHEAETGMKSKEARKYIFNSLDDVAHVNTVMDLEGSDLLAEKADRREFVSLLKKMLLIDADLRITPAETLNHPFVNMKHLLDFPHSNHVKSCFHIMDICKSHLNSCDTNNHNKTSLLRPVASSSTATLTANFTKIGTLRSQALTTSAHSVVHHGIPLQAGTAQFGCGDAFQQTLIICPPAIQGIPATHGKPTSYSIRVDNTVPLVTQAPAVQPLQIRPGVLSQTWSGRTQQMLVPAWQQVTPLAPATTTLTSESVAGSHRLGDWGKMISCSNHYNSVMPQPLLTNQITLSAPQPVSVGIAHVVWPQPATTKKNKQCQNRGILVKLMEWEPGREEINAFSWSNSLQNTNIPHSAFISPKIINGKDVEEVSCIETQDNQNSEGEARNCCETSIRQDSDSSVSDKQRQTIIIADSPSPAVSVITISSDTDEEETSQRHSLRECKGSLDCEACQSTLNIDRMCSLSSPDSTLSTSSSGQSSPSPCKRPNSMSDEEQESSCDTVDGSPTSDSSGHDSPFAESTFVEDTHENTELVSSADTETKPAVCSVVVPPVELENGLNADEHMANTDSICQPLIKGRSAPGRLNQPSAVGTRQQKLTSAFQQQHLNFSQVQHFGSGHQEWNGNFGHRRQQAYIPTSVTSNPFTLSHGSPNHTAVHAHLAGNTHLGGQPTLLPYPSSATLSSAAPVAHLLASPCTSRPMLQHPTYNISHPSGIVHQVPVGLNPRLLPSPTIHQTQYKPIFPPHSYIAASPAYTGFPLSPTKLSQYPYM
# [17] = target: Megakaryocyte-associated tyrosine-protein kinase (Homo sapiens) (UniProt P42679)
# [18] = system: Tyrosine-protein kinase ABL1 (Homo sapiens), P00519 [F317L]
# [19] = target: MAP kinase-interacting serine/threonine-protein kinase 2 (Homo sapiens) (UniProt Q9HBH9)
# [20] = target: ALK tyrosine kinase receptor (Homo sapiens) (UniProt Q9UM73)
# [21] = system: Mast/stem cell growth factor receptor Kit (Homo sapiens), P10721 [D816V]
# [22] = target: SRSF protein kinase 3 (Homo sapiens) (UniProt Q9UPE1)
# [23] = target: Receptor-type tyrosine-protein kinase FLT3 (Homo sapiens) (UniProt P36888); remark: listed apart in the source
# [24] = target: Mitogen-activated protein kinase 14 (Homo sapiens) (UniProt Q16539)
# [25] = target: Protein kinase C epsilon type (Homo sapiens) (UniProt Q02156)
# [26] = target: Tyrosine-protein kinase Srms (Homo sapiens) (UniProt Q9H3Y6)
# [27] = system: Mast/stem cell growth factor receptor Kit (Homo sapiens), P10721 [V559D,T670I]
# [28] = target: Alpha-1B adrenergic receptor (Homo sapiens) (UniProt P35368); settings: Compound concentration 10.0 uM
# [29] = target: Serine/threonine-protein kinase 26 (Homo sapiens, UniProt Q9P289)
# [30] = system: Receptor-type tyrosine-protein kinase FLT3 (Homo sapiens), P36888 [UNDEFINED MUTATION]
# Receptor-type tyrosine-protein kinase FLT3 (Homo sapiens), P36888 [UNDEFINED MUTATION], sequence (P36888 whole entry, looked up, change not shown): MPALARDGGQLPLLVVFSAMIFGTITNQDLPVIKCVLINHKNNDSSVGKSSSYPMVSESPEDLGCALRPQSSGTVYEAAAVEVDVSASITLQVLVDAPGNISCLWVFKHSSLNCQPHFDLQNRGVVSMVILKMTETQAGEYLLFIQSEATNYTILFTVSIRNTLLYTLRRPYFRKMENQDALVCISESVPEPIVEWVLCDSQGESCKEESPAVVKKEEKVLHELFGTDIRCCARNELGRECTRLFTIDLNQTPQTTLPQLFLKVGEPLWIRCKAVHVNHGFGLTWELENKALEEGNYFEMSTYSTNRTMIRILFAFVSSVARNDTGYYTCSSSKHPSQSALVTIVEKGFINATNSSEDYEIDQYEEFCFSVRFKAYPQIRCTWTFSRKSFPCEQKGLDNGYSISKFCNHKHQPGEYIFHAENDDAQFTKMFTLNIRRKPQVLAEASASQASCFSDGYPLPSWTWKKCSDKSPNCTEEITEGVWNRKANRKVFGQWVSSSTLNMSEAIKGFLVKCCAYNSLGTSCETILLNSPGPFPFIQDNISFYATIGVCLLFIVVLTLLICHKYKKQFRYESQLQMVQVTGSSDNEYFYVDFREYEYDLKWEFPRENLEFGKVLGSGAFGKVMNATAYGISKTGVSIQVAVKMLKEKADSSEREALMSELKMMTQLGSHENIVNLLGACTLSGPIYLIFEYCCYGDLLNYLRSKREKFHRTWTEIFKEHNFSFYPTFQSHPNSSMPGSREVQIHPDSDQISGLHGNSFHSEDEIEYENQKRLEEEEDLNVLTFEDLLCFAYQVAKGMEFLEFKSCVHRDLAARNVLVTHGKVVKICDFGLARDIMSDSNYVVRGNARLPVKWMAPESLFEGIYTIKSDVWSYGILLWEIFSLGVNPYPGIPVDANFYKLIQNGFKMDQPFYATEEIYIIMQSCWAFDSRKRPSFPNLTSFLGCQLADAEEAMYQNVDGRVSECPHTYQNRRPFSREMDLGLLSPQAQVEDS
# [31] = target: Serine/threonine-protein kinase STK11 (Homo sapiens) (UniProt Q15831)
# Serine/threonine-protein kinase STK11 (Homo sapiens), sequence (Q15831 whole entry): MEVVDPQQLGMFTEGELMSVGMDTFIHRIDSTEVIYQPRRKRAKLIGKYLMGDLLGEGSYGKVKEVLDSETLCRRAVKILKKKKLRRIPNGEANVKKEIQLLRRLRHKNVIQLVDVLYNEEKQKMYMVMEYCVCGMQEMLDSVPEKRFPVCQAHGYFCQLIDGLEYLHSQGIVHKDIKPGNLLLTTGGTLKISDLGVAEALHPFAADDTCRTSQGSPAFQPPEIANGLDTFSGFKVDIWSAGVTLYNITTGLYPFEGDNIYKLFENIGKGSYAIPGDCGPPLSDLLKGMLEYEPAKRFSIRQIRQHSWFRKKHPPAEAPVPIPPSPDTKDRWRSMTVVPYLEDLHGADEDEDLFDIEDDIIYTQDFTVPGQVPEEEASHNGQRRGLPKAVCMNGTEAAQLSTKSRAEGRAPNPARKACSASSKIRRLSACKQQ
# [32] = target: Serine/threonine-protein kinase 36 (Homo sapiens) (UniProt Q9NRP7)
# [33] = target: cAMP-dependent protein kinase catalytic subunit alpha (Homo sapiens) (UniProt P17612)
# [34] = target: Serine/threonine-protein kinase PAK 2 (Homo sapiens) (UniProt Q13177)
# [35] = target: Tyrosine-protein kinase JAK2 (Homo sapiens) (UniProt O60674)
# [36] = target: Tyrosine-protein kinase JAK1 (Homo sapiens) (UniProt P23458)
# [37] = target: Casein kinase I isoform delta (Homo sapiens) (UniProt P48730)
# [38] = target: Macrophage colony-stimulating factor 1 receptor (Homo sapiens) (UniProt P07333)
# [39] = target: Alpha-2A adrenergic receptor (Homo sapiens) (UniProt P08913); settings: Compound concentration 10.0 uM
# [40] = target: Vascular endothelial growth factor receptor 2 (Homo sapiens) (UniProt P35968)
# [41] = target: Glycogen synthase kinase-3 alpha (Homo sapiens, UniProt P49840)
# [42] = target: Mast/stem cell growth factor receptor Kit (Homo sapiens) (UniProt P10721)
# [43] = system: Phosphatidylinositol 4,5-bisphosphate 3-kinase catalytic subunit alpha isoform (Homo sapiens), P42336 [E545K]
# Phosphatidylinositol 4,5-bisphosphate 3-kinase catalytic subunit alpha isoform (Homo sapiens), P42336 [E545K], sequence (P42336 whole entry E545K, canonical isoform): as the sequence (P42336 whole entry C420R, canonical isoform) above, with R420C, E545K counted along it
# [44] = target: Mitogen-activated protein kinase 7 (Homo sapiens) (UniProt Q13164)
# [45] = target: Cyclin-dependent kinase 8 (Homo sapiens) (UniProt P49336)
# [46] = Compound concentration 1000.0 nM
# [47] = Compound concentration 100.0 nM
# Receptor-type tyrosine-protein kinase FLT3 (Homo sapiens), sequence (P36888 whole entry): as the sequence (P36888 whole entry, looked up, change not shown) above
# Serine/threonine-protein kinase 16 (Homo sapiens), sequence (O75716 whole entry): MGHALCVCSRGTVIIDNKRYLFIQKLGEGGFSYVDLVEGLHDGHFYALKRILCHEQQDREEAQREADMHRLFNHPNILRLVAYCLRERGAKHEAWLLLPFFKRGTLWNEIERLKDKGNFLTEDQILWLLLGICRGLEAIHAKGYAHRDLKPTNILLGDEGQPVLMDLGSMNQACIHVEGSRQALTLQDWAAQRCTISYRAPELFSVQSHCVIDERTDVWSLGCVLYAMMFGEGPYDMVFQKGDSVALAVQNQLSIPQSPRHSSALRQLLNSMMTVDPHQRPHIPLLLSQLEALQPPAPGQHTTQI
smiles,measurement,setting,value
C[C@H](NC(=O)Nc1cc2[nH]ncc2c(CO)n1)c1ccccn1 [ERKi-NC],residual activity,[1]; [46],71.8%
same,residual activity,[2]; [46],100%
same,residual activity,[3]; [46],100%
same,residual activity,[4]; [46],100%
same,residual activity,[5]; [46],100%
same,residual activity,[6]; [46],97.1%
same,residual activity,[7]; [46],42.7%
same,residual activity,[8]; [46],100%
same,residual activity,[9]; [46],80.7%
same,residual activity,[10]; [46],100%
same,residual activity,[11]; [46],100%
same,residual activity,[12]; [46],95.5%
same,residual activity,[13]; [46],74.2%
same,residual activity,[14]; [46],100%
same,residual activity,[15]; [46],100%
same,residual activity,[16]; [46],85.1%
same,residual activity,[17]; [46],100%
same,residual activity,[18]; [46],91.9%
same,residual activity,[19]; [46],82.6%
same,residual activity,[20]; [46],85.4%
same,residual activity,[21]; [46],100%
same,residual activity,[22]; [46],100%
same,residual activity,[23]; [46],100%
same,residual activity,[24]; [46],100%
same,residual activity,[25]; [46],100%
same,residual activity,[26]; [46],84%
same,residual activity,[27]; [46],85.5%
same,inhibition,[28],1.42%
same,residual activity,[29]; [46],100%
same,residual activity,[30]; [46],73.5%
same,residual activity,[31]; [46],100%
same,residual activity,[32]; [46],97.3%
same,residual activity,[33]; [46],87.7%
same,residual activity,[34]; [46],94.3%
same,residual activity,[35]; [46],100%
same,residual activity,[36]; [46],100%
same,residual activity,[37]; [46],100%
same,residual activity,[38]; [46],100%
same,inhibition,[39],16.8%
same,residual activity,[40]; [46],100%
same,residual activity,[41]; [46],100%
same,residual activity,[42]; [46],71.5%
same,residual activity,[43]; [46],74.9%
same,residual activity,[44]; [46],87.9%
same,residual activity,[45]; [46],100%
C[C@@H](NC(=O)Nc1cc2[nH]ncc2c(CO)n1)c1ccccc1 [ERKi],residual activity,[1]; [47],78.1%
same,residual activity,[2]; [47],89.6%
same,residual activity,[3]; [47],60.3%
same,residual activity,[4]; [47],85.3%
same,residual activity,[5]; [47],97.5%
same,residual activity,[6]; [47],89.2%
same,residual activity,[7]; [47],88.4%
same,residual activity,[8]; [47],94.9%
same,residual activity,[9]; [47],70%
same,residual activity,[10]; [47],72.1%
same,residual activity,[11]; [47],46.1%
same,residual activity,[12]; [47],84.8%
same,residual activity,[13]; [47],86.6%
same,residual activity,[14]; [47],49%
same,residual activity,[15]; [47],94.6%
same,residual activity,[16]; [47],96.2%
same,residual activity,[17]; [47],72.1%
same,residual activity,[18]; [47],82.1%
same,residual activity,[19]; [47],90.6%
same,residual activity,[20]; [47],89.9%
same,residual activity,[21]; [47],82.7%
same,residual activity,[22]; [47],100%
same,residual activity,[23]; [47],91.6%
same,residual activity,[24]; [47],100%
same,residual activity,[25]; [47],85%
same,residual activity,[26]; [47],87.1%
same,residual activity,[27]; [47],83.7%
same,inhibition,[28],-2.72%
same,residual activity,[29]; [47],94.9%
same,residual activity,[30]; [47],100%
same,residual activity,[31]; [47],91.2%
same,residual activity,[32]; [47],88.4%
same,residual activity,[33]; [47],91.8%
same,residual activity,[34]; [47],86.3%
same,residual activity,[35]; [47],93.7%
same,residual activity,[36]; [47],91.2%
same,residual activity,[37]; [47],84.7%
same,residual activity,[38]; [47],89.3%
same,inhibition,[39],9.2%
same,residual activity,[40]; [47],100%
same,residual activity,[41]; [47],88%
same,residual activity,[42]; [47],89.5%
same,residual activity,[43]; [47],80.5%
same,residual activity,[44]; [47],85.5%
same,residual activity,[45]; [47],76.1%
